One compound from US20130109726A1, “SUSTAINED-RELEASE THERAPEUTIC AGENT FOR HYPERTENSION AND RENAL DYSFUNCTION” (TEIJIN PHARMA LIMITED, priority 2010, published 2013) can be followed below.

The test system of assay [1] is spontaneously hypertensive rats (SHR). In words: Systolic blood pressure by Tail-Cuff method in spontaneous hypertension model (SHR). It counts as in vivo, rat. As for the experimental part:
The effects of the immediate-release and sustained-release administrations of febuxostat in a spontaneous hypertension model were ascertained. Male spontaneously hypertensive rats (SHR) aged 12 weeks were subjected to quarantine for a week or more before used as subjects. From 13 weeks of age, habituation to blood pressure measurement with a Tail-Cuff sphygmomanometer (BP-2000, Visitech systems, Napa Place, N.C., USA) was performed for two weeks. At 15 weeks of age after the completion of the habituation, blood pressure was measured, and the subjects were divided into three groups (10 subjects in each group), such that the systolic blood pressures were evenly distributed. Subsequently, the administrations were started. Group 1, a control group, was given tap water. Group 2 was given febuxostat in drinking water. Group 3 was given febuxostat by oral gavage.
The administration in drinking water was performed by giving the subjects access to an aqueous solution of febuxostat ad libitum. In this manner, prolonged drug exposure to the blood, i.e, sustained-release administration can be accomplished, as compared to a single oral administration. On the other hand, the oral administration was performed by giving a suspension of febuxostat in 0.5% MC solution (with a concentration of febuxostat of 2 mg/mL) at 5 mL/kg by oral gavage. The blood level of the drug rapidly increases after the administration and diclines soon. Thus, immediate-release administration can be accomplished in this manner. After 18 days of administration, systolic blood pressure was measured by the Tail-Cuff method.

The subject of assay [2] is adriamycin-induced nephropathy mouse model. Description: Urine albumin excretion in adriamycin-induced nephropathy mouse model. It counts as in vivo. As for the experimental part: The effects of the immediate-release and sustained-release administrations of febuxostat in an adriamycin-induced nephropathy mouse model were ascertained. The adriamycin-induced nephropathy model is known as a renal dysfunction model in which lesions occur in glomerular epithelial cells and proteinuria is observed.
Male BALB/cAnNCrlCrlj mice aged 7 weeks were subjected to quarantine for a week or more before used as subjects.
At 8 weeks of age, a 24-hour urine collection was performed and the concentration of albumin in the collected urine was measured by ELISA. The subjects were divided into three groups, such that the amounts of albumin excretion were evenly distributed. Subsequently, the administrations were started. Group 1, a control group, was given tap water. Group 2 was given febuxostat in drinking water. Group 3 was given febuxostat by oral gavage.
The administration in drinking water was performed by giving the subjects access to an aqueous solution of febuxostat ad libitum. In this manner, prolonged drug exposure, i.e, sustained-release administration can be accomplished, as compared to a single oral administration. On the other hand, the oral administration was performed by giving a suspension of febuxostat in 0.5% MC solution by oral gavage via a tube. The blood level of the drug rapidly increases after the administration and diclines soon. Thus, immediate-release administration can be accomplished in this manner. Following the initiation of dosing on the first day, adriamycin was given to mice via tail vein at 10 mg/kg. Then, the administrations were conducted for 5 consecutive days. A 24-hour urine collection was performed 5 days after onset of drug administration and the amount of albumin in the collected urine was measured as previously described.

For `Cc1nc(-c2ccc(OCC(C)C)c(C#N)c2)sc1C(=O)O` [febuxostat, 2-(3-cyano-4-isobutyloxyphenyl)-4-methyl-5-thiazole carboxylic acid], the “systolic blood pressure (mean±standard error)” value was determined as 199 ± 3 mmHg in assay [1] (Group 2, sustained-release administration, 1.5 mg/kg/day in drinking water, Day 18 of dosing); 203 ± 3 mmHg in assay [1] (Group 2, sustained-release administration, 1.5 mg/kg/day in drinking water, Pre-dose); 217 ± 3 mmHg in assay [1] (Group 3, immediate-release administration, 10 mg/kg/day oral gavage, Day 18 of dosing); 201 ± 4 mmHg in assay [1] (Group 3, immediate-release administration, 10 mg/kg/day oral gavage, Pre-dose). The “blood pressure lowering, sustained-release versus immediate-release administration” value in assay [1] (SHR, 18 days of administration) is reported as “blood pressure was more strongly lowered by administering febuxostat in a sustained-release manner”. Further, the “Urine albumin excretion (mean±standard error)” value in assay [2] (Group 2, sustained-release administration, 3 mg/kg/day in drinking water, Day 0) is reported as 0.1 ± 0.1 mg/day; in assay [2] (Group 2, sustained-release administration, 3 mg/kg/day in drinking water, Day 5, adriamycin 10 mg/kg i.v.), 9.5 ± 3.9 mg/day; in assay [2] (Group 3, immediate-release administration, 3 mg/kg/day oral gavage, Day 0), 0.1 ± 0.1 mg/day; in assay [2] (Group 3, immediate-release administration, 3 mg/kg/day oral gavage, Day 5, adriamycin 10 mg/kg i.v.), 18.4 ± 9.7 mg/day. For the same compound, the “amelioration of renal dysfunction, sustained-release versus immediate-release administration” value in assay [2] (adriamycin-induced nephropathy mice, 5 days of administration) is “renal dysfunction was more effectively ameliorated by administering febuxostat in a sustained-manner”.
